Measured values published in PubChem BioAssay AID2060487 (Molecular Pharmacology Branch, DTP, NCI, 2025).

Test system: 997537-175-T-J1-PDC complex spheroid viability
Experiment: Anticancer human tumor 997537-175-T-J1-PDC patient-derived colon adenocarcinoma cell line growth inhibition [GQUAD]
Conditions: for IC50: curve of first compound; for viability, T/C: stronger effect = lower value
Outline: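 Multi-cell-type spheroids of tumor cells with HUVEC and mesenchymal stem cells, treated with drug combinations. Concentrations descend in half-log steps from near clinical Cmax, or from 10 microM where Cmax is unknown; viability read-out.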

[1] = second compound 0.0316 µM, first compound 0.0316 µM
[2] = second compound 0.0316 µM, first compound 0.1 µM
[3] = second compound 0.0316 µM, first compound 0.316 µM
[4] = second compound 0.0316 µM, first compound 1 µM
[5] = second compound 0.0316 µM, first compound 3.16 µM
[6] = second compound 0.0316 µM, first compound 10 µM
[7] = second compound 0.1 µM, first compound 0.0316 µM
[8] = second compound 0.1 µM, first compound 0.1 µM
[9] = second compound 0.1 µM, first compound 0.316 µM
[10] = second compound 0.1 µM, first compound 1 µM
[11] = second compound 0.1 µM, first compound 3.16 µM
[12] = second compound 0.1 µM, first compound 10 µM
[13] = second compound 0.316 µM, first compound 0.0316 µM
[14] = second compound 0.316 µM, first compound 0.1 µM
[15] = second compound 0.316 µM, first compound 0.316 µM
[16] = second compound 0.316 µM, first compound 1 µM
[17] = second compound 0.316 µM, first compound 3.16 µM
[18] = second compound 0.316 µM, first compound 10 µM
[19] = second compound 1 µM, first compound 0.0316 µM
[20] = second compound 1 µM, first compound 0.1 µM
[21] = second compound 1 µM, first compound 0.316 µM
[22] = second compound 1 µM, first compound 1 µM
[23] = second compound 1 µM, first compound 3.16 µM
[24] = second compound 1 µM, first compound 10 µM
[25] = second compound 3.16 µM, first compound 0.0316 µM
[26] = second compound 3.16 µM, first compound 0.1 µM
[27] = second compound 3.16 µM, first compound 0.316 µM
[28] = second compound 3.16 µM, first compound 1 µM
[29] = second compound 3.16 µM, first compound 3.16 µM
[30] = second compound 3.16 µM, first compound 10 µM
[31] = second compound 10 µM, first compound 0.0316 µM
[32] = second compound 10 µM, first compound 0.1 µM
[33] = second compound 10 µM, first compound 0.316 µM
[34] = second compound 10 µM, first compound 1 µM
[35] = second compound 10 µM, first compound 3.16 µM
[36] = second compound 10 µM, first compound 10 µM
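Further: spheroids exposed to the agents for 7 days.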
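Wherever viability, T/C is given: 100% = DMSO vehicle control viability.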

CCCS(=O)(=O)Nc1ccc(F)c(C(=O)c2c[nH]c3ncc(-c4ccc(Cl)cc4)cc23)c1F + CN(C)c1ccc(Nc2c3ccc(NC(=O)CCN4CCCC4)cc3nc3cc(NC(=O)CCN4CCCC4)ccc23)cc1
IC50 (second compound 0.0316 µM): 2.18 µM
IC50 (second compound 0.1 µM): 3.14 µM
IC50 (second compound 0.316 µM): 4.1 µM
IC50 (second compound 1 µM): 4.72 µM
IC50 (second compound 3.16 µM): 7.03 µM
IC50 (second compound 10 µM): 5.84 µM
viability, T/C [1]: 93.9%
viability, T/C [2]: 75.3%
viability, T/C [3]: 60.8%
viability, T/C [4]: 78.6%
viability, T/C [5]: 38.4%
viability, T/C [6]: 24.5%
viability, T/C [7]: 105%
viability, T/C [8]: 73.1%
viability, T/C [9]: 75.4%
viability, T/C [10]: 70.6%
viability, T/C [11]: 52.1%
viability, T/C [12]: 32.7%
viability, T/C [13]: 71.3%
viability, T/C [14]: 72.9%
viability, T/C [15]: 81.3%
viability, T/C [16]: 62.9%
viability, T/C [17]: 59.4%
viability, T/C [18]: 23.9%
viability, T/C [19]: 67%
viability, T/C [20]: 55%
viability, T/C [21]: 81.7%
viability, T/C [22]: 43.3%
viability, T/C [23]: 65.4%
viability, T/C [24]: 26.9%
viability, T/C [25]: 70.3%
viability, T/C [26]: 63.5%
viability, T/C [27]: 85.1%
viability, T/C [28]: 39.9%
viability, T/C [29]: 78.9%
viability, T/C [30]: 42.3%
viability, T/C [31]: 71.3%
viability, T/C [32]: 62.6%
viability, T/C [33]: 63.5%
viability, T/C [34]: 56%
viability, T/C [35]: 74.9%
viability, T/C [36]: 36.4%

COc1cc(C2c3cc4c(cc3C(OC3OC5COC(C)OC5C(O)C3O)C3COC(=O)C23)OCO4)cc(OC)c1O (stereo unspecified) + Cc1[nH]c2ccc(F)cc2c1-c1nc2c3cccnc3c3ncccc3c2[nH]1
IC50 (second compound 0.0316 µM): > 10 µM
IC50 (second compound 0.1 µM): > 10 µM
IC50 (second compound 0.316 µM): > 10 µM
IC50 (second compound 1 µM): > 10 µM
IC50 (second compound 3.16 µM): > 10 µM
IC50 (second compound 10 µM): > 10 µM
viability, T/C [1]: 105%
viability, T/C [2]: 90%
viability, T/C [3]: 102%
viability, T/C [4]: 64.1%
viability, T/C [5]: 109%
viability, T/C [6]: 53.6%
viability, T/C [7]: 99%
viability, T/C [8]: 75.9%
viability, T/C [9]: 89%
viability, T/C [10]: 88.3%
viability, T/C [11]: 90.8%
viability, T/C [12]: 75.3%
viability, T/C [13]: 96.4%
viability, T/C [14]: 64.1%
viability, T/C [15]: 91.1%
viability, T/C [16]: 84.5%
viability, T/C [17]: 91%
viability, T/C [18]: 76.8%
viability, T/C [19]: 89.8%
viability, T/C [20]: 77.2%
viability, T/C [21]: 88.5%
viability, T/C [22]: 84.8%
viability, T/C [23]: 67.7%
viability, T/C [24]: 53.1%
viability, T/C [25]: 88.5%
viability, T/C [26]: 71%
viability, T/C [27]: 85.8%
viability, T/C [28]: 75.7%
viability, T/C [29]: 98.6%
viability, T/C [30]: 72.4%
viability, T/C [31]: 84.8%
viability, T/C [32]: 92.7%
viability, T/C [33]: 78.6%
viability, T/C [34]: 81%
viability, T/C [35]: 86%
viability, T/C [36]: 65.2%

Cc1cccc(N(C)C(=O)C2C(O)CCN2c2nc(C)cc(C(F)(F)F)c2C#N)c1 (stereo unspecified) + Cc1[nH]c2ccc(F)cc2c1-c1nc2c3cccnc3c3ncccc3c2[nH]1
IC50 (second compound 0.0316 µM): > 10 µM
IC50 (second compound 0.1 µM): > 10 µM
IC50 (second compound 0.316 µM): > 10 µM
IC50 (second compound 1 µM): > 10 µM
IC50 (second compound 3.16 µM): > 10 µM
IC50 (second compound 10 µM): > 10 µM
viability, T/C [1]: 104%
viability, T/C [2]: 82.7%
viability, T/C [3]: 107%
viability, T/C [4]: 75.4%
viability, T/C [5]: 85.6%
viability, T/C [6]: 96%
viability, T/C [7]: 101%
viability, T/C [8]: 97.8%
viability, T/C [9]: 96%
viability, T/C [10]: 80.1%
viability, T/C [11]: 99%
viability, T/C [12]: 90.6%
viability, T/C [13]: 101%
viability, T/C [14]: 74%
viability, T/C [15]: 92.8%
viability, T/C [16]: 95%
viability, T/C [17]: 100%
viability, T/C [18]: 106%
viability, T/C [19]: 79.4%
viability, T/C [20]: 95.3%
viability, T/C [21]: 108%
viability, T/C [22]: 85.4%
viability, T/C [23]: 104%
viability, T/C [24]: 92.7%
viability, T/C [25]: 57.9%
viability, T/C [26]: 89.9%
viability, T/C [27]: 76.9%
viability, T/C [28]: 79.2%
viability, T/C [29]: 69%
viability, T/C [30]: 85.6%
viability, T/C [31]: 80.5%
viability, T/C [32]: 93.8%
viability, T/C [33]: 80.6%
viability, T/C [34]: 76.8%
viability, T/C [35]: 105%
viability, T/C [36]: 95.6%
